From patent publication US6069167A, “Use of antioxidant agents to treat cholestatic liver disease” (priority 1997, dated 2000)

Experiments:
[1] = system: lactate dehydrogenase (LDH); experiment: Interference of TCDC with the LDH assay (total LDH activity of hepatocyte lysate); assay type: cell-based, rat; details: 10×10^6 hepatocytes incubated 4 hours with or without TCDC at 1000 μmol/L
Procedure: Adult male Sprague Dawley rats (250-275 grams body weight) were obtained from Sasco, Inc. (Omaha, Nebr.). They were maintained on Purina lab chow (Ralston Purina Co., Chicago, Ill.) for 2-3 weeks and housed in polyethylene cages with stainless steel tops on a […]. All rats received humane care in compliance with the guidelines of the Committee on Laboratory Animal Research of the University of Colorado Health Sciences Center. Hepatocytes were isolated using a collagenase reperfusion technique that was a modification^24 of the method of Berry and Friend^25. After administration of intraperitoneal anesthesia (50 mg/kg body weight), each rat liver was perfused in situ via the portal vein with Krebs-Henseleit buffer containing a mixture of 17 amino acids as previously described^24 under a 9% O2 /5% CO2 /86% N2 atmosphere until perfusate was blood free (after approximately 25-50 ml of perfusate infusion). […] Initial cell viability measured by the trypan blue exclusion method^43 was above 95%. […]
Hepatocyte injury was assessed by the percentage of total cellular lactate dehydrogenase (LDH) release into the buffer medium. LDH was analyzed by measuring the rate of decrease in absorbance at 340 nm during reduction of pyruvate using a diagnostic kit supplied by Sigma Diagnostics (St Louis, Mo.). […]

liver = experiment: Histology of the liver in the in vivo reversible hepatic injury model; design: species or system rat
Text: The instant invention also provides for an in vivo reversible hepatic injury model animal model, preferably a rodent model, most preferably a rat model. The animal can be dosed with any injurious bile acid or analogs thereof Suitable injurious bile acids include conjugates of chenodeoxycholic acid and lithocholic acid. A particularly suitable injurious bile acid analog is taurochenodeoxycholic acid. The injurious bile acid or analog can be administered by any suitable means, such as injection, oral or rectal administration. The injurious bile acid or analog thereof can be conveniently administered intravenously, particularly intravenous administration in the tail vein. The time of administration should be for less than 10 minutes, preferably approximately 1 to 2 minutes.
These histological findings are similar to those reported in a recently described rat model of continuous jugular vein infusion of TCDC at a rate of 0.4 to 0.6 μmol/min/100 gram over 60 minutes^31. […] However, the model of the instant invention produced similar results at half the TCDC dosages of the continuous TCDC infusion model, and allows for rapid, convenient infusion of TCDC.
Based on these biochemical and histological findings, a suitable time point for the embodiment of the instant invention using TCDC as the toxic bile acid was the 4 hour, 10 μmol/100 gram weight dose.

hepatic toxicity (liver) = experiment: Dose response of intravenous TCDC and hepatic toxicity (serum AST, ALT, bilirubin, alkaline phosphatase); assay type: in vivo, male Sprague-Dawley rats; details: for Serum ALT / Serum AST: mean ± SEM, n = 4
Text: Young adult male Sprague-Dawley rats (150-180 gram weight) purchased from Sasco, Inc. (Omaha, Nebr.) were fed Purina Lab Chow (Ralston Purina Co., Chicago, Ill.) ad libitum for 2-3 weeks and housed in polyethylene cages with stainless steel tops on a 12-hour light-dark cycle. All rats received humane care in compliance with the guidelines of the Animal Use in Research Committee of the University of Colorado Health Sciences Center. Rats were then randomly assigned (4-5 per group) to receive 0 (vehicle only), 5, 10, or 20 μmol of taurochenodeoxycholic acid (TCDC)/100 gram body weight. TCDC is a conjugate of the bile acid most implicated in cholestatic liver injury9,11,12. TCDC was solubilized in 5% dextrose, 10% BSA, and 0.45% normal saline. TCDC was administered while rats were under light methoxyflurane anesthesia as an intravenous bolus of the desired dose in 1 to 2 minutes through the tail vein. TCDC dosing was performed between 7 and 9 am. Rats recovered from the injection uneventfully and blood was obtained at 0, 4, 8, 12 and 24 hours after the injection for determination of AST, ALT total bilirubin and alkaline phosphatase by an automated chemical analyzer (Hitachi 747 Chemical Analyzer).

[2] = i.v. bolus TCDC in rats, data not shown
[3] = i.v. bolus TCDC in rats, dose-dependent

C[C@H](CCC(=O)NCCS(=O)(=O)O)[C@H]1CC[C@H]2[C@@H]3[C@H](O)C[C@@H]4C[C@H](O)CC[C@]4(C)[C@H]3CC[C@]12C [TCDC, taurochenodeoxycholic acid]
Total hepatocyte LDH activity in the lysate [1]: 90-96 units | Histology of the liver (liver; 4 h after TCDC 10 μmol/100 gram weight): mild hepatocyte swelling, variable necrosis of individual hepatocytes, mild portal tract infiltration with lymphocytes without bile duct injury, and accumulation of smooth eosinophilic globules | Reversibility of hepatocyte injury (liver; TCDC 10 μmol/100 gram weight, 24 h): much reduced by 24 hours after injection | Predominant histological findings of the in vivo model (liver; rat model, TCDC): Hepatocyte swelling and a mild degree of cellular necrosis | Serum ALT (hepatic toxicity (liver); TCDC dose 5 i.v., 0 h): 52 ± 6 IU/L | Serum AST (hepatic toxicity (liver); TCDC dose 5 i.v., 0 h): 73 ± 9 IU/L | Serum ALT (hepatic toxicity (liver); TCDC dose 5 i.v., 4 h): 92 ± 23 IU/L | Serum AST (hepatic toxicity (liver); TCDC dose 5 i.v., 4 h): 121 ± 24 IU/L | Serum ALT (hepatic toxicity (liver); TCDC dose 5 i.v., 8 h): 88 ± 12 IU/L | Serum AST (hepatic toxicity (liver); TCDC dose 5 i.v., 8 h): 110 ± 12 IU/L | Serum ALT (hepatic toxicity (liver); TCDC dose 5 i.v., 12 h): 70 ± 7 IU/L | Serum AST (hepatic toxicity (liver); TCDC dose 5 i.v., 12 h): 105 ± 12 IU/L | Serum ALT (hepatic toxicity (liver); TCDC dose 5 i.v., 24 h): 72 ± 7 IU/L | Serum AST (hepatic toxicity (liver); TCDC dose 5 i.v., 24 h): 89 ± 3.5 IU/L | Serum ALT (hepatic toxicity (liver); TCDC dose 10 i.v., 0 h): 53 ± 3 IU/L | Serum AST (hepatic toxicity (liver); TCDC dose 10 i.v., 0 h): 92 ± 8 IU/L | Serum ALT (hepatic toxicity (liver); TCDC dose 10 i.v., 4 h): 1855 ± 701 IU/L | Serum AST (hepatic toxicity (liver); TCDC dose 10 i.v., 4 h): 3679 ± 1105 IU/L | Serum ALT (hepatic toxicity (liver); TCDC dose 10 i.v., 8 h): 1963 ± 701 IU/L | Serum AST (hepatic toxicity (liver); TCDC dose 10 i.v., 8 h): 2233 ± 1906 IU/L | Serum ALT (hepatic toxicity (liver); TCDC dose 10 i.v., 12 h): 492 ± 291 IU/L | Serum AST (hepatic toxicity (liver); TCDC dose 10 i.v., 12 h): 605 ± 249 IU/L | Serum ALT (hepatic toxicity (liver); TCDC dose 10 i.v., 24 h): 198 ± 82 IU/L | Serum AST (hepatic toxicity (liver); TCDC dose 10 i.v., 24 h): 328 ± 82 IU/L | Serum ALT (hepatic toxicity (liver); TCDC dose 20 i.v., 0 h): 64 ± 9 IU/L | Serum AST (hepatic toxicity (liver); TCDC dose 20 i.v., 0 h): 70 ± 6 IU/L | Serum ALT (hepatic toxicity (liver); TCDC dose 20 i.v., 4 h): 1712 ± 554 IU/L | Serum AST (hepatic toxicity (liver); TCDC dose 20 i.v., 4 h): 1456 ± 748 IU/L | Serum ALT (hepatic toxicity (liver); TCDC dose 20 i.v., 8 h): 1238 ± 257 IU/L | Serum AST (hepatic toxicity (liver); TCDC dose 20 i.v., 8 h): 2057 ± 939 IU/L | Serum ALT (hepatic toxicity (liver); TCDC dose 20 i.v., 12 h): 851 ± 167 IU/L | Serum AST (hepatic toxicity (liver); TCDC dose 20 i.v., 12 h): 1282 ± 375 IU/L | Serum ALT (hepatic toxicity (liver); TCDC dose 20 i.v., 24 h): 362 ± 75 IU/L | Serum AST (hepatic toxicity (liver); TCDC dose 20 i.v., 24 h): 399 ± 41 IU/L | Time of peak serum AST and ALT after injection (hepatic toxicity (liver); i.v. bolus TCDC in rats): 4 h | Serum alkaline phosphatase, change (hepatic toxicity (liver); [2]): no significant changes | Total serum bilirubin, change (hepatic toxicity (liver); [2]): no significant changes | Serum ALT concentration, change (hepatic toxicity (liver); [3]): significant rise | Serum AST concentration, change (hepatic toxicity (liver); [3]): significant rise
